Measured values reported in paper PMC11083769, “Characterization and pharmacokinetics of cinnamon and star anise compound essential oil pellets prepared via centrifugal granulation technology” (BMC Veterinary Research, 2024).
Converted amounts (≈) assume the structure as drawn. Marks after values point to notes of the source that are not given here.

Columns and labels:
[1] = test system: Staphylococcus aureus Newman strain; parameters: method as in PMID 32185411; settings: cited from earlier work
[2] = Pharmacokinetics of compound essential oil pellets in pig model; assay type: in vivo; settings: single dose, n = 6
Source text: Six healthy Landrace × Large White hybrid pigs were randomly divided into three groups for pharmacokinetic experiments and were purchased from JuCong Agriculture, Nanning, Guangxi. During the adaptation period, the temperature of the breeding environment was 18–25℃, the relative humidity was 50–65%, and commercial feed and water free of antibiotics and target drugs were freely available to the pigs housed individually in six pig pens. After the experiment, the pigs were released.
After one week in the experimental setting, the pigs were labelled with numbers 1–6, randomly divided into 3 groups, and weighed before the experiment. […] Compound essential oil pellets were orally administered at three different doses of 50, 100 and 200 mg/kg. Three cycles of crossover trials were performed with 6 pigs, with each cycle separated by 7 days. 5 mL of blood was collected from the anterior vena cava at different time points after administration, centrifuged at 3000 r/min for 10 min, after which the plasma was separated. The drug concentration in the plasma was detected by GC‒MS/MS after pretreatment.
The average drug-time curve of each group was drawn. WinNonlin version 5.2.1 was used to calculate the pharmacokinetic parameters.
The compound essential oil pellet concentration was measured using GC‒MS/MS. The chromatographic conditions were as follows. A PEG-20 M column (30 m × 0.32 mm, 0.25 μm) was used. The temperature was increased from 90 ℃ to 160 ℃ at a heating rate of 10 ℃/min, held for 5 min, further increased from 160 ℃ to 280 ℃ at a heating rate of 20 ℃/min and held for 2 min.

[3] = oral compound essential oil pellets 50 mg/kg
[4] = oral compound essential oil pellets 100 mg/kg
[5] = oral compound essential oil pellets 200 mg/kg

**Q.** For C/C=C/c1ccc(OC)cc1 [trans-anethole, Trans-anethole], which MIC [1] is on record?
**A.** The MIC was 49.4 mg/mL (≈ 333 mM).

**Q.** With O=C/C=C/c1ccccc1 [cinnamaldehyde, Cinnamaldehyde] as the molecule, how does the “AUC0−∞ of plasma cinnamaldehyde” value [2, 3] read?
**A.** The value was 1433.11 ± 21.30^a h·µg/L.

**Q.** What about the “CL of plasma cinnamaldehyde” value [2, 3] of the same molecule?
**A.** The value was 18.69 ± 1.81^ac L/h/kg.

**Q.** And the “Cmax of plasma cinnamaldehyde” value [2, 3]?
**A.** Its value is 58.81 ± 6.16^a µg/L.

**Q.** And the “MRT0−∞ of plasma cinnamaldehyde” value [2, 3]?
**A.** Its value is 20.96 ± 0.21^a h.

**Q.** What about the “T1/2 of plasma cinnamaldehyde” value [2, 3] of the same molecule?
**A.** The value was 14.52 ± 0.14^a h.

**Q.** What about the “Tmax of plasma cinnamaldehyde” value [2, 3] of the same molecule?
**A.** The value was 2.00 h.

**Q.** And the “Vz of plasma cinnamaldehyde” value [2, 3]?
**A.** The value was 1205.24 ± 149.37^ab L/kg.

**Q.** And the “AUC0−∞ of plasma cinnamaldehyde” value [2, 4]?
**A.** The value was 467.05 ± 141.28^d h·µg/L.

**Q.** What about the “CL of plasma cinnamaldehyde” value [2, 4] of the same molecule?
**A.** The value was 142.48 ± 40.58^d L/h/kg.

**Q.** And the “Cmax of plasma cinnamaldehyde” value [2, 4]?
**A.** The value was 37.57 ± 5.56^d µg/L.

**Q.** And the “MRT0−∞ of plasma cinnamaldehyde” value [2, 4]?
**A.** The value was 17.62 ± 1.84^d h.

**Q.** What about the “T1/2 of plasma cinnamaldehyde” value [2, 4] of the same molecule?
**A.** The value was 12.21 ± 1.27^d h.

**Q.** What about the “Tmax of plasma cinnamaldehyde” value [2, 4] of the same molecule?
**A.** The value was 2.00 h.

**Q.** What about the “Vz of plasma cinnamaldehyde” value [2, 4] of the same molecule?
**A.** Its value is 7671.46 ± 1809.86^d L/kg.

**Q.** And the “AUC0−∞ of plasma cinnamaldehyde” value [2, 5]?
**A.** Its value is 1653.25 ± 295.40 µg·h/L.

**Q.** What about the “CL of plasma cinnamaldehyde” value [2, 5] of the same molecule?
**A.** The value was 56.85 ± 15.32 L/h/kg.

**Q.** What about the “Cmax of plasma cinnamaldehyde” value [2, 5] of the same molecule?
**A.** Its value is 64.18 ± 2.33 µg/L.

**Q.** What about the “MRT0−∞ of plasma cinnamaldehyde” value [2, 5] of the same molecule?
**A.** Its value is 20.68 ± 0.61 h.

**Q.** What about the “T1/2 of plasma cinnamaldehyde” value [2, 5] of the same molecule?
**A.** The value was 14.33 ± 0.42 h.

**Q.** What about the “Tmax of plasma cinnamaldehyde” value [2, 5] of the same molecule?
**A.** Its value is 2.00 h.

**Q.** And the “Vz of plasma cinnamaldehyde” value [2, 5]?
**A.** Its value is 4593.67 ± 625.29 L/kg.
